The subject of one experiment is A498. Put plainly: In vitro cytotoxic activity against renal (A498) cell line at a concentration of 10e-5 M. The format is functional, Homo sapiens.
A further experiment deals with DU-145. Put plainly: In vitro cytotoxic activity against prostate (DU145) cell line at a concentration of 10e-5 M. The format is functional, Homo sapiens.
In another experiment the test system is M14. Put plainly: In vitro cytotoxic activity against Melanoma (M14) cell line at a concentration of 10e-5 M. The experiment is classed as functional, Homo sapiens.
Another experiment relates to MCF7. Description: In vitro cytotoxic activity against breast (MCF-7/ADR) cell line at a concentration of 10e-5 M. The format is functional, Homo sapiens.
The next experiment concerns SW-620. Description: In vitro cytotoxic activity against colon (SW620) cell line at a concentration of 10e-5 M. The format is functional, Homo sapiens.
In another experiment the test system is U-251. Description: In vitro cytotoxic activity against CNS(U251) cell line at a concentration of 10e-5 M. The experiment is classed as functional, Homo sapiens.
The subject of another experiment is SK-OV-3. Put plainly: In vitro cytotoxic activity against Ovarian (SK-OV3) cell line at a concentration of 10e-5 M. The format is functional, Homo sapiens.
A further experiment has as its system NCI-H522. Put plainly: In vitro cytotoxicity against H522 (human adenocarcinoma) cell line at a concentration of 10e-5 M.

In ChEMBL document CHEMBL1136447, “Biological investigation and structure-activity relationship studies on azadirone from Azadirachta indica A. Juss” (2003) one finds Growth data, which are given here for 14 compounds.

Regarding `CCOC1=C[C@@]2(C)C(C[C@@H](O)[C@@]3(C)C4=CC[C@@H](c5ccoc5)[C@]4(C)CCC23)C(C)(C)C1=O` (some centres not stated), the Growth in the experiment on A498 is reported as 52%; in the experiment with DU-145 it was 84%; with M14 it was 67%; with MCF7 it was 17%; with SW-620, 36%; with U-251, 54%. Also, the Growth in the experiment with SK-OV-3 turned out to be 67%; in the experiment with NCI-H522, 57%.
As for `CCCC(=O)O[C@@H]1CC2C(C)(C)C(=O)C=C[C@]2(C)C2CC[C@]3(C)C(=CC[C@H]3c3ccoc3)[C@@]21C` (some centres not stated), the Growth with A498 came out at 43%; in the experiment with DU-145 it was 68%; in the experiment with M14, 59%; in the experiment with MCF7, 57%; with SW-620, 49%; in the experiment on U-251, 15%. The Growth with SK-OV-3 came to 90%; with NCI-H522, 40%.
Turning to `CCO[C@@H]1CC2C(C)(C)C(=O)C=C[C@]2(C)C2CC[C@]3(C)C(=CC[C@H]3c3ccoc3)[C@@]21C` (some centres not stated), the Growth in the experiment on A498 is given as 45%; in the experiment with DU-145 it was 76%; in the experiment on M14, 61%; in the experiment with MCF7, 66%; in the experiment on SW-620, 81%; in the experiment with U-251 it was 63%. For the same compound, the figures for the Growth with SK-OV-3 and in the experiment on NCI-H522 were 100% and 69%, respectively.
In the case of `CC1(C)C(O)C=C[C@@]2(C)C1C[C@@H](O)[C@@]1(C)C3=CC[C@@H](c4ccoc4)[C@]3(C)CCC21` (some centres not stated), the Growth amounted to 88.2% with A498; 100% in the experiment on DU-145; 100% in the experiment on M14; 76% in the experiment on MCF7; 79.6% in the experiment with SW-620; 100% with U-251. For the same compound, the Growth is listed as 100% in the experiment with SK-OV-3 and 97% in the experiment with NCI-H522.
With `CC1(C)C(=O)C=C[C@@]2(C)C1C[C@@H](OC(=O)Nc1ccccc1)[C@@]1(C)C3=CC[C@@H](c4ccoc4)[C@]3(C)CCC21` (some centres not stated), the Growth in the experiment with A498 was determined as 100%; in the experiment with DU-145, 76%; in the experiment on M14 it was 74%; in the experiment on MCF7 it was 55%; in the experiment on SW-620 it was 64%; in the experiment on U-251 it was 71%. In addition, the figures for the Growth in the experiment on SK-OV-3 and in the experiment with NCI-H522 were 100% and 51%, respectively.
Take `CC1(C)C(=O)C=C[C@@]2(C)C1C[C@@H](OC(=O)C(F)(F)F)[C@@]1(C)C3=CC[C@@H](c4ccoc4)[C@]3(C)CCC21` (some centres not stated): the Growth was 59% in the experiment on A498; 77% in the experiment with DU-145; 86% with M14; 54% in the experiment with MCF7; 60% in the experiment on SW-620; 52% with U-251. Further, the Growth in the experiment on SK-OV-3 amounted to 49%; in the experiment with NCI-H522 it was 75%.
Take `CC(=O)O[C@@H]1CC2C(C)(C)C(=O)[C@@H]3O[C@@H]3[C@]2(C)C2CC[C@]3(C)C(=CC[C@H]3c3ccoc3)[C@@]21C` (some centres not stated): the Growth with A498 is 42.7%; with DU-145, 63.1%; with M14 it was 100%; in the experiment with MCF7, 59.3%; in the experiment with SW-620, 100%; with U-251, 100%. Further, the figures for the Growth with SK-OV-3 and in the experiment on NCI-H522 were 100% and 69.6%, respectively.
Take `CC(=O)O[C@@H]1CC2C(C)(C)C(=O)C=C[C@]2(C)C2CC[C@]3(C)C(=CC[C@H]3C3=CC(=O)OC3O)[C@@]21C.CC(=O)O[C@@H]1CC2C(C)(C)C(=O)C=C[C@]2(C)C2CC[C@]3(C)C(=CC[C@H]3C3=CC(O)OC3=O)[C@@]21C` (some centres not stated): the Growth in the experiment with A498 is listed as 70.3%; in the experiment with DU-145, 24.8%; in the experiment on M14 it was 71.3%; in the experiment with MCF7 it was -13%; in the experiment with SW-620, 100%; in the experiment with U-251, 44.3%. The results for the Growth in the experiment with SK-OV-3 and in the experiment on NCI-H522 were 41.6% and 73.3%, respectively.
As for `CC(C)C(=O)O[C@@H]1CC2C(C)(C)C(=O)C=C[C@]2(C)C2CC[C@]3(C)C(=CC[C@H]3c3ccoc3)[C@@]21C` (some centres not stated), the Growth with A498 is recorded as 74%; with DU-145, 69%; in the experiment with M14, 95%; in the experiment on MCF7 it was 57%; in the experiment on SW-620 it was 61%; in the experiment with U-251, 40%. Moreover, the Growth in the experiment with SK-OV-3 is reported as 84%; in the experiment with NCI-H522, 54%.
`COc1ccc(/C=C\C(=O)O[C@@H]2CC3C(C)(C)C(=O)C=C[C@]3(C)C3CC[C@]4(C)C(=CC[C@H]4c4ccoc4)[C@@]32C)cc1OC` (some centres not stated): the Growth in the experiment on A498 came to 5%; in the experiment with DU-145, 25%; in the experiment with M14, 39%; with MCF7, 66%; in the experiment with SW-620, 62%; in the experiment with U-251 it was 77%. Also, the Growth is recorded as 85% in the experiment on SK-OV-3 and 63% in the experiment on NCI-H522.
Regarding `CC(=O)O[C@@H]1CC2C(C)(C)/C(=N/O)C=C[C@]2(C)C2CC[C@]3(C)C(=CC[C@H]3c3ccoc3)[C@@]21C` (some centres not stated), the Growth with A498 is on record as 20%; in the experiment on DU-145, 56%; in the experiment with M14, 38%; in the experiment with MCF7, 55%; in the experiment on SW-620 it was 47%; with U-251 it was 5%. The Growth in the experiment with SK-OV-3 worked out at 87%; in the experiment on NCI-H522 it was 44%.
Consider `CC(=O)OC1C=C[C@@]2(C)C(C[C@@H](OC(C)=O)[C@@]3(C)C4=CC[C@@H](c5ccoc5)[C@]4(C)CCC23)C1(C)C` (some centres not stated), for which the Growth in the experiment with A498 is reported as 69%; in the experiment with DU-145, 74%; in the experiment with M14, 76%; in the experiment on MCF7 it was 78%; with SW-620 it was 59%; in the experiment on U-251 it was 46%. For the same compound, the Growth in the experiment with SK-OV-3 stood at 19.3%; in the experiment with NCI-H522, 86%.
As to `CCC(=O)O[C@@H]1CC2C(C)(C)C(=O)C=C[C@]2(C)C2CC[C@]3(C)C(=CC[C@H]3c3ccoc3)[C@@]21C` (some centres not stated), the Growth in the experiment on A498 turned out to be 67%; in the experiment with DU-145 it was 67%; with M14, 39%; with MCF7, 29%; in the experiment with SW-620, 51%; with U-251, 40%. The Growth in the experiment with SK-OV-3 is on record as 61%; in the experiment with NCI-H522 it was 48%.
`CC1(C)C(=O)C=C[C@@]2(C)C1C[C@@H](OC(=O)/C=C\c1ccccc1)[C@@]1(C)C3=CC[C@@H](c4ccoc4)[C@]3(C)CCC21` (some centres not stated): the Growth with A498 was determined as 48%; in the experiment with DU-145, 81%; in the experiment on M14 it was 41%; in the experiment on MCF7, 55%; in the experiment on SW-620, 86%; in the experiment on U-251, 41%. The Growth is given as 86% in the experiment with SK-OV-3 and 69% in the experiment on NCI-H522.
